Key:
Adenosine A-1 receptor = biological target: T1, Adenosine A-1 receptor (Rattus norvegicus, UniProt P25099); test: Test for affinity for brain adenosine A-1 receptor binding sites ([3H]cyclohexyladenosine competition); conditions: [3H]cyclohexyladenosine 0.8 nM, rat brain membranes, 25°C, 2 hours
T1 construct: the membranes are isolated from whole animal brains; from tissue; host or cells: whole brain of male Sprague-Dawley rats
T1 sequence (P25099 1-326): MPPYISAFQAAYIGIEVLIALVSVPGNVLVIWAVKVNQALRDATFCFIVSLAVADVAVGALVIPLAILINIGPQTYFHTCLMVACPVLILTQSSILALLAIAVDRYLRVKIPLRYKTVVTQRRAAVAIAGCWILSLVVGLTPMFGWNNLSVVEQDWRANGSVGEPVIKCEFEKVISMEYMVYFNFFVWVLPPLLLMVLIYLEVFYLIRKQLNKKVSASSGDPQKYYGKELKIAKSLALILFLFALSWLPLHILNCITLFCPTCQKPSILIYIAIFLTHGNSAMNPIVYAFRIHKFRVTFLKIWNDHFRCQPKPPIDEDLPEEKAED
Description: Test For Affinity For Brain Adenosine A-1 Receptor Binding Sites
The test described below is used to determine the potency of test compounds to compete with the ligand [3H]cycloadenosine for the Adenosine A-1 receptor prepared from rat brain membranes. Male Sprague-Dawley rats are sacrificed by decapitation and the membranes are isolated from whole animal brains. (See R. Goodman, M. Cooper, M. Gavish, and S. Synder, Guanine Nucleotide and Cation Regulation of the Binding of [3H] Diethylphenylxanthine to Adenosine A-1 Receptors in Brain Membrane, Molecular Pharmacology, 21, 329-335, (1982), incorporated herein by reference.)
Membranes are homogenized (using polytron setting 7 for 10 seconds) in 25 volumes of ice-cold 50 mM Tris-HCl buffer, pH 7.7. The homogenate is centrifuged at 19,000 rpm for 10 minutes at 4°C. The pellet is washed by resuspending in 25 volumes of buffer with 2 IU of adenosine deaminase per ml and incubated 30 minutes at 37°C. The homogenate is centrifuged again. The final pellet is resuspended in 25 volumes of ice-cold buffer.
The incubation tubes, in triplicate, receive 100 µl of [3H]cyclohexyladenosine, 0.8 nM in the assay, 200 µl of test compounds at various concentrations over the range of 10^-10 M to 10^-6 M diluted with […] Tris-HCl buffer (pH 7.7), 0.2 ml of membrane suspension (8 mg wet weight) and in a final volume of 2 ml with Tris buffer. Incubations are carried out at 25°C for 2 hours and each one is terminated within 10 seconds by filtration through a GF/B glass fiber filter using a vacuum. The membranes on the filters are transferred to scintillation vials. The filters are counted by liquid scintillation spectometry in 8 ml of Omniflour containing 5% Protosol.
Specific binding of [3H]cycloadenosine is measured as the excess over blanks taken in the presence of 10^-5 M 2-chloroadenosine. Total membrane-bound radioactivity is about 5% of that added to the test tubes. Specific binding to membranes is about 90% of the total bound. Protein content of the membrane suspension is determined by the method of Lowry, et al. Id., 265.
Displacement of [3H]cyclohexyladenosine binding of 15% or more by a test compound is indicative of affinity for the adenosine binding site.

adenosine A-2 receptors = biological target: T2, adenosine A-2 receptors (Rattus norvegicus, UniProt P30543); test: Test for affinity for brain adenosine A-2 receptors ([3H]NECA competition); format: binding; conditions: rat brain striatum membranes, 25°C, 60 minutes, read-out: A-2 Receptor Ki
T2 construct: the adenosine A-2 receptors prepared from animal brain membranes; from tissue; host or cells: striatum of young male rats (C-D strain, Charles River)
Description: Test For Affinity For Brain Adenosine A-2 Receptors
The test described below was used to determine the potency of test compounds to compete with the ligand [3H]5′-N-ethyl-carboxamidoadenosine (NECA) for the adenosine A-2 receptors prepared from animal brain membranes. (See also R.R. Bruns, G.H. Lu, and T.A. Pugsley, Characterization of the A-2 Adenosine Receptor Labeled by [3H]NECA in Rat Striatal Membranes, Mol. Pharmacol., 29, 331-346, (1986), incorporated herein by reference.) Young male rats (C-D strain), obtained from Charles River, are killed by decapitation and the brain was removed. Membranes for ligand binding are isolated from rat brain striatum. The tissue is homogenized in 20 vol ice-cold 50 mM Tris-HCl buffer (pH 7.7) using a polytron (setting 6 for 20 seconds). The homogenate is centrifuged at 50,000 x g for 10 minutes at 4°C. The pellet is again homogenized in a polytron in 20 vol of buffer, and centrifuged as before. The pellet is finally resuspended in 40 vol of 50mM Tris-HCl (pH 7.7) per gram of original wet weight of tissue.
Incubation tubes, in triplicate, receive 100 µl of [3H]NECA (94 nM in the assay), 100 µl of 1 µM cyclohexyladenosine (CHA), 100 µl of 100 mM MgCl2, 100 µl of 1 IU/ml adenosine deaminase, 100 µl of test compounds at various concentrations over the range of 10^-10 M to 10^-4 M diluted with assay buffer (50 mM Tris-HCl, pH 7.7) and […] of membrane suspension (5 mg wet weight), in a final volume of 1 ml of 50 mM Tris-HCl, pH 7.7. Incubations are carried out at 25°C for 60 minutes. Each tube is filtered through GF/B glass fiber filters using a vacuum. The filters are rinsed two times with 5 ml of the ice-cold buffer. The membranes on the filters are transferred to scintillation vials to which 8 ml of Omnifluor with 5% Protosol is added. The filters are counted by liquid scintillation spectrometry.
Specific binding of [3H]NECA is measured as the excess over blanks run in the presence of 100 µM 2-chloroadenosine. Total membrane-bound radioactivity is about 2.5% of that added to the test tubes. […] Specific binding to membranes is about 50% of the total bound. Protein content of the membrane suspension is determined by the method of O.H. Lowry, N.J. Rosebrough, A.L. Farr and R.J. Randall, Protein Measurements With Folin Phenol Reagent, J. Biol. Chem., 193, 265-275 (1951), (incorporated herein by reference).
Displacement of [3H]NECA binding of 15% or more by a test compound is indicative of affinity for the adenosine A-2 site. The molar concentration of a compound which causes 50% inhibition of the binding of ligand is the IC50.

A-2 receptors = conditions: brain slice assay; cited from earlier work

T2 sequence (P30543 whole entry): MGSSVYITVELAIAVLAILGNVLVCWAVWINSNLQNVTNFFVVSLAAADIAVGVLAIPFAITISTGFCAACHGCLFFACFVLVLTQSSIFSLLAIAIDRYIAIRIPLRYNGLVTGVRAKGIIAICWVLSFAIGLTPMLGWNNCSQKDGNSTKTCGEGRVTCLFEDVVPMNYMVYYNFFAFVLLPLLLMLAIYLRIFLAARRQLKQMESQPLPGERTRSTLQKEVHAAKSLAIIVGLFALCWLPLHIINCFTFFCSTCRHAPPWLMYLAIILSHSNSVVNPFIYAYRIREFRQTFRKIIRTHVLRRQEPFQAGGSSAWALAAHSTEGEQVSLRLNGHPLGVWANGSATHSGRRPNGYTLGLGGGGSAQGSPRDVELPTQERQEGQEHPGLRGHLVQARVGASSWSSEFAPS

| Compound | Ki (Adenosine A-1 receptor) [nM] | Ki (adenosine A-2 receptors) [nM] | Ki (A-2 receptors) [nM] |
| --- | --- | --- | --- |
| CCCOc1nc(N[C@H](C)Cc2ccccc2)c2cnn(-c3ccccc3)c2n1 [Compound 1, (R)-N-(1-methyl-2-phenylethyl)-1-phenyl-6-propoxy-1H-pyrazolo[3,4-d]pyrimidin-4-amine] | 2010 | 3630 | – |
| CCCOc1nc(N[C@@H](C)Cc2ccccc2)c2cnn(-c3ccccc3)c2n1 [Compound 2, (S)-N-(1-methyl-2-phenylethyl)-1-phenyl-6-propoxy-1H-pyrazolo[3,4-d]pyrimidin-4-amine] | 11300 | > 6990 | – |
| CCCOc1nc(N[C@H](CO)Cc2ccccc2)c2cnn(-c3ccccc3)c2n1 [Compound 3, (S)-β-[(1-phenyl-6-propoxy-1H-pyrazolo[3,4-d]pyrimidin-4-yl)amino]benzenepropanol] | 1740 | 2900 | – |
| CCCn1c(=O)c2[nH]c(-c3ccc(OCC(=O)NCCN)cc3)nc2n(CCC)c1=O [XAC, amino congener of 8-phenyl-1,3-dipropyl-xanthine] | – | – | 49 ± 17 |
| CCCn1c(=O)c2[nH]c(-c3ccc(OCC(=O)O)cc3)nc2n(CCC)c1=O [XCC, carboxylic acid congener of 8-phenyl-1,3-dipropyl-xanthine] | – | – | 34 ± 13 |

More lines, main results first:

| Ki (Adenosine A-1 receptor) [nM] | Ki (adenosine A-2 receptors) [nM] | Compound | Ki (A-2 receptors) [nM] |
| --- | --- | --- | --- |
| 321 | 377 | CCCOc1nc(N[C@@H](CO)Cc2ccccc2)c2cnn(-c3ccccc3)c2n1 [Compound 4, (R)-β-[(1-phenyl-6-propoxy-1H-pyrazolo[3,4-d]pyrimidin-4-yl)amino]benzenepropanol] | – |
| 3700 | 17200 | CCCOc1nc(N[C@@H](CO)Cc2ccccc2)c2ncn([C@@H]3O[C@H](CO)[C@@H](O)[C@H]3O)c2n1 [Compound 5] | – |
| 44 | 1900 | CCCOc1nc(N[C@H](CO)Cc2ccccc2)c2ncn([C@@H]3O[C@H](CO)[C@@H](O)[C@H]3O)c2n1 [Compound 6] | – |
